Results taken from patent US11512053B2, “Arginine methyltransferase inhibitors and uses thereof” (priority 2013, dated 2022).
Where two headings read alike, the source gives them in different places.

Key:
[1] = target: full-length human PRMT6 (Flag- and His-tagged) (Homo sapiens, UniProt Q96LA8); experiment: PRMT6 Biochemical Assay (3H-SAM Flashplate, peptide substrate); conditions: read-out: Biochemical IC50 PRMT6
Summary of the method: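 Radiometric methyltransferase readout: tritium transfer onto a biotin-tagged histone H4 36-50 peptide bearing monomethyl K44 (75 nM), captured on streptavidin Flashplates after stopping with 400 uM unlabeled SAM. Enzyme is baculovirus-expressed Flag-PRMT6-His at 1 nM, given 30 min with compound at room temperature before adding 200 nM 3H-SAM and 250 nM cold SAM (pH 7.6 Bicine, 2% DMSO). Percent inhibition relative to max/min (1 mM SAH) controls, curve-fit to IC50.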

[2] = tested on: mono-methyl arginine in RKO cells; experiment: RKO Methylation Assay, In Cell Western (ICW) for detection of mono-methyl arginine and DNA content; type: cell-based; conditions: Homo sapiens, RKO, 72 h, RKO cells, read-out: In Cell Western EC30
Summary of the method: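 RKO cells were treated with compound for 72 hours at 37 °C, methanol-fixed and stained overnight at 4 °C with anti-mono-methyl arginine (1:200), with DRAQ5 for DNA. Odyssey 800/700 nm intensity ratio was normalized to DMSO and 20 μM reference-compound controls. EC30 from triplicate nine-point curves.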

[3] = single experiment or average of multiple experiments
[4] = 72 hours compound incubation, mono-methyl arginine signal normalised to DNA content (DRAQ5), percent activation vs 20 μM reference compound
[5] = 72 hours incubation, mono-methyl arginine signal normalised to DNA content, single experiment or average of multiple experiments

full-length human PRMT6 (Flag- and His-tagged), sequence (Q96LA8 with tags, fused parts or gaps): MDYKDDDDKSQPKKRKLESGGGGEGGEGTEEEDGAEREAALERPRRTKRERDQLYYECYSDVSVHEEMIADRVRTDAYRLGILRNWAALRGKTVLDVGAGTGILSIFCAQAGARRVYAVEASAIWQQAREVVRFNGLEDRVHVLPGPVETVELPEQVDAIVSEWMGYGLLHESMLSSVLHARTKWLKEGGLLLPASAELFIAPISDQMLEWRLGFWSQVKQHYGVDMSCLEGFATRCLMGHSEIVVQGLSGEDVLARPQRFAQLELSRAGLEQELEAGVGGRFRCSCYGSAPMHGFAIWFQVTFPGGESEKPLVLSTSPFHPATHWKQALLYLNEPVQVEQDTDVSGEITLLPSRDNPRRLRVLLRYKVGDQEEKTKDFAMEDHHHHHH

Row | Compound | IC50 [1] | IC50 [1, 3] | EC30 [2, 4] | EC30 [2, 5]
1 | CNCCN(C)Cc1c[nH]nc1C1CCC2(CC1)CNC(=O)C2 (stereo not drawn) [Compound 147] | < 100 nM | 32.7 nM | 3010 to 12000 nM | 8600 nM
2 | CC[C@H]1CC[C@H](c2n[nH]cc2CN(C)CCNC)CC1 [Compound 148] | < 100 nM | 8.1 nM | < 3000 nM | 16 nM
3 | CNCCN(C)Cc1c[nH]nc1C1CCC(C)CC1 (stereo not drawn) [Compound 149] | < 100 nM | 7.2 nM | < 3000 nM | 106 nM
4 | CNCCN(C)Cc1c[nH]nc1C1CCC2(CC1)OCC(C(C)C)CO2 (stereo not drawn) [Compound 150] | < 100 nM | 55.6 nM | < 3000 nM | 256 nM
5 | CNCCN(C)Cc1c[nH]nc1C1CCC2(CC1)CN(C)C(=O)N2CC(C)C (stereo not drawn) [Compound 151] | < 100 nM | 47.7 nM | < 3000 nM | 705 nM
6 | CNCCN(C)Cc1c[nH]nc1C1CCC2(CC1)CCN(C)C2=O (stereo not drawn) [Compound 152] | < 100 nM | 35.2 nM | < 3000 nM | 119 nM
7 | CNCCN(C)Cc1c[nH]nc1C1CCC(OCC(C)C)CC1 (stereo not drawn) [Compound 153] | < 100 nM | 28.4 nM | < 3000 nM | 129 nM
8 | CCN1CC2(CCC(c3n[nH]cc3CN(C)CCNC)CC2)N(C)C1=O (stereo not drawn) [Compound 154] | < 100 nM | 44.3 nM | < 3000 nM | 1790 nM
9 | CNCCN(C)Cc1c[nH]nc1[C@H]1CC[C@]2(CC1)CC(=O)N(CC(C)C)C2 [Compound 155] | < 100 nM | 60.8 nM | 3010 to 12000 nM | 4080 nM
10 | CNCCN(C)Cc1c[nH]nc1[C@H]1CC[C@@]2(CC1)CC(=O)N(CC(C)C)C2 [Compound 156] | < 100 nM | 57.8 nM | < 3000 nM | 1360 nM
11 | CNCCN(C)Cc1c[nH]nc1C1CCC2(CC1)CC(=O)N(C)C2 (stereo not drawn) [Compound 157] | < 100 nM | 47.9 nM | < 3000 nM | 2490 nM
12 | CCOC1CC(OCC)CC2(CCC(c3n[nH]cc3CN(C)CCNC)CC2)C1 (stereo not drawn) [Compound 159] | < 100 nM | 53.8 nM | < 3000 nM | 63 nM
13 | CNCCN(C)Cc1c[nH]nc1C1CCC2(CC1)OCCCO2 [Compound 160] | 101 to 1000 nM | 112 nM | < 3000 nM | 166 nM
14 | CNCCN(C)Cc1c[nH]nc1C1CCC2(CC1)C(=O)NC(=O)N2C (stereo not drawn) [Compound 161] | < 100 nM | 72.9 nM | 3010 to 12000 nM | 5020 nM
15 | CCN1C(=O)N(C)CC12CCC(c1n[nH]cc1CN(C)CCNC)CC2 (stereo not drawn) [Compound 162] | < 100 nM | 61 nM | 3010 to 12000 nM | 6680 nM
16 | CNCCN(C)Cc1c[nH]nc1C1CCC2(CC1)CCN(CCC(C)C)C2=O (stereo not drawn) [Compound 163] | < 100 nM | 65.7 nM | < 3000 nM | 66 nM
17 | CNCCN(C)Cc1c[nH]nc1C1CCC2(CC1)CCN(CC(C)C)C2=O (stereo not drawn) [Compound 164] | < 100 nM | 70.8 nM | < 3000 nM | 78 nM
18 | CNCCN(C)Cc1c[nH]nc1C1CCC2(CC1)CC(=O)N(CCC(C)C)C2 (stereo not drawn) [Compound 165] | 101 to 1000 nM | 120 nM | < 3000 nM | 510 nM

Row | Compound | IC50 [1] | IC50 [1, 3] | EC30 [2, 4] | EC30 [2, 5]
19 | CNCCN(C)Cc1c[nH]nc1[C@H]1CC[C@@H](COC)CC1 [Compound 166] | < 100 nM | 48.6 nM | < 3000 nM | 83 nM
20 | CNCCN(C)Cc1c[nH]nc1[C@H]1CC[C@H](COC)CC1 [Compound 167] | < 100 nM | 31.5 nM | < 3000 nM | 18 nM
21 | CCOC1CC2(CCC(c3n[nH]cc3CN(C)CCNC)CC2)CC1OCC (stereo not drawn) [Compound 168] | < 100 nM | 45.1 nM | < 3000 nM | 85 nM
22 | CNCCN(C)Cc1c[nH]nc1C1CCC(CC(C)C)CC1 (stereo not drawn) [Compound 169] | < 100 nM | 17.8 nM | < 3000 nM | 16 nM
23 | CNCCN(C)Cc1c[nH]nc1C1CCC2(CC1)C(=O)N(C)C(=O)N2C (stereo not drawn) [Compound 171] | < 100 nM | 41.1 nM | < 3000 nM | 192 nM
24 | CNCCN(C)Cc1c[nH]nc1C1CCC2(CC1)CN(C)C(=O)N2C (stereo not drawn) [Compound 172] | < 100 nM | 45.8 nM | 3010 to 12000 nM | 4460 nM
25 | CNCCN(C)Cc1c[nH]nc1C1=CCC(CCOC)(CCOC)CC1 [Compound 173] | < 100 nM | 89.9 nM | < 3000 nM | 408 nM
26 | CNCCN(C)Cc1c[nH]nc1C1CCC(CCOC)(CCOC)CC1 [Compound 174] | < 100 nM | 84.4 nM | < 3000 nM | 85 nM
27 | CNCCN(C)Cc1c[nH]nc1C1CCC2(CC1)NC(=O)NC2=O (stereo not drawn) [Compound 175] | < 100 nM | 37.6 nM | > 12000 nM | > 20000 nM
28 | CNCCN(C)Cc1c[nH]nc1C1CCC2(CCNC2=O)CC1 (stereo not drawn) [Compound 176] | < 100 nM | 36.4 nM | < 3000 nM | 2140 nM
29 | CNCCN(C)Cc1c[nH]nc1C1CCC2(CC1)OCCO2 [Compound 177] | 101 to 1000 nM | 113 nM | < 3000 nM | 571 nM
30 | CNCCN(C)Cc1c[nH]nc1C1CCC2(CCOCC2)CC1 [Compound 178] | < 100 nM | 15.7 nM | < 3000 nM | 76 nM
31 | CNCCN(C)Cc1c[nH]nc1C1CC(C)OC(C)C1 (stereo not drawn) [Compound 179] | < 100 nM | 62.9 nM | < 3000 nM | 476 nM
32 | CNCCN(C)Cc1c[nH]nc1[C@H]1CC[C@H](C(C)C)CC1 [Compound 180] | < 100 nM | 14.7 nM | < 3000 nM | 19 nM
33 | CNCCN(C)Cc1c[nH]nc1[C@H]1CC[C@@H](C(C)C)CC1 [Compound 181] | < 100 nM | 27.9 nM | < 3000 nM | 107 nM
34 | CNCCN(C)Cc1c[nH]nc1C1CCC(O)C2(CCCC2)C1 (stereo not drawn) [Compound 182, 9-[4-({methyl[2-(methylamino)ethyl]amino}methyl)-1H-pyrazol-3-yl]spiro[4.5]decan-6-ol] | < 100 nM | 73.5 nM | < 3000 nM | 411 nM
35 | CNCCN(C)Cc1c[nH]nc1C1CCC(C)(C)C(O)C1 (stereo not drawn) [Compound 185, 2,2-dimethyl-5-[4-({methyl[2-(methylamino)ethyl]amino}methyl)-1H-pyrazol-3-yl]cyclohexan-1-ol] | < 100 nM | 35.2 nM | < 3000 nM | 453 nM
36 | CNCCN(C)Cc1c[nH]nc1[C@H]1CC[C@H](OCCOc2ccccc2)CC1 [Compound 187] | 101 to 1000 nM | 261 nM | 3010 to 12000 nM | 3160 nM
